This passage reports melting point and IC50 results from publication PMC6844396, “Design, synthesis and biological evaluation of novel 1H-1,2,4-triazole, benzothiazole and indazole-based derivatives as potent FGFR1 inhibitors viafragment-based virtual screening” (Journal of Enzyme Inhibition and Medicinal Chemistry, 2019).

One may read the melting point as the temperature of the solid-liquid transition. As a reminder, the IC50 is the concentration needed to halve the response being measured.

SMILES strings stand for the structures. Where only a bound is given, the exact number is not on record here.

In one data set the target is FGFR1 (Homo sapiens, UniProt P11362). The data set is described as follows: ELISA kinase assay, FGFR1. Conditions: ELISA; average values from two separate experiments. In kind it is biochemical. How it is done: Elisa kinase assay. The effects of the indicated compounds on the activities of receptor tyrosine kinases were determined using enzyme-linked immunosorbent assays (ELISAs) with purified recombinant proteins. Briefly, 20 μg/mL poly (Glu,Tyr)4:1 (Sigma, St Louis, MO, USA) was pre-coated in 96-well plates as a substrate. A 50 μL aliquot of 10 μmol/L ATP solution diluted in kinase reaction buffer (50 mmol/L HEPES [pH 7.4], 50 mmol/L MgCl2, 0.5 mmol/L MnCl2, 0.2 mmol/L Na3VO4, and 1 mmol/L DTT) was added to each well; 1 μL of different compounds with indicated concentration diluted in 1% DMSO (v/v) (Sigma, St Louis, MO, USA) were then added to each reaction well. DMSO (1%, v/v) was used as the negative control. The kinase reaction was initiated by the addition of purified tyrosine kinase proteins (FGFR1, FGFR2, FGFR3, FGFR4, ALK, Bcr-Abl, EPH-A2, Flt-1, RET, c-Src, IGF1R, c-Met, EGFR, ErbB2) diluted in 49 μL of kinase reaction buffer solution. After incubation for 60 min at 37 °C, the plate was washed three times with phosphate-buffered saline (PBS) containing 0.1% Tween 20 (T-PBS). Anti-phosphotyrosine (PY99) antibody (100 μL; 1:500, diluted in 5 mg/mL BSA T-PBS) was then added. After a 30 min incubation at 37 °C, the plate was washed three times, and 100 μL horseradish peroxidase-conjugated goat anti-mouse IgG (1:2000, diluted in 5 mg/mL BSA T-PBS) was added. The plate was then incubated at 37 °C for 30 min and washed 3 times. A 100 μL aliquot of a solution containing 0.03% H2O2 and 2 mg/mL o-phenylenediamine in 0.1 mol/l citrate buffer (pH 5.5) was added. The reaction was terminated by the addition of 50 μL of 2 mol/l H2SO4 as the colour changed, and the plate was analysed using a multi-well spectrophotometer (SpectraMAX 190, Molecular Devices, Sunnyvale, CA, USA) at 490 nm. The inhibition rate (%) was calculated using the following equation: [1-(A490/A490 control)] × 100%. The IC50 values were calculated from the inhibition curves in two separate experiments.
For orientation: In an ELISA, binding on a coated surface is turned into a signal by an enzyme label.

In another data set the test system is SNU-16 cell. The data set is described as follows: Cell proliferation assay (CCK-8 or MTT), SNU-16. In kind it is cell-based, Human. Conditions: Homo sapiens, SNU-16 is FGFR2-amplified cell type, 72 h. How it is done: Human gastric cancer cell line SNU-16 was purchased from American Type Culture Collection (ATCC, Manssas, VA, USA). All the cell lines were routinely maintained in complete medium according to the suppliers’ recommendations.
Cells were seeded in 96-well tissue culture plates. On the day when seeding, the cells were exposed to various concentrations of compounds and further cultured for 72 h at 37 °C. Finally, cell proliferation was determined using Cell Counting Kit (CCK-8) or the thiazolyl blue tetrazolium bromide (MTT, from Sigma-Aldrich, St. Louis, MO, USA) assay. The IC50 values were calculated by concentration–response curve fitting using a SoftMax pro-based four-parameter method.

Chain of FGFR1 (P11362 22-822): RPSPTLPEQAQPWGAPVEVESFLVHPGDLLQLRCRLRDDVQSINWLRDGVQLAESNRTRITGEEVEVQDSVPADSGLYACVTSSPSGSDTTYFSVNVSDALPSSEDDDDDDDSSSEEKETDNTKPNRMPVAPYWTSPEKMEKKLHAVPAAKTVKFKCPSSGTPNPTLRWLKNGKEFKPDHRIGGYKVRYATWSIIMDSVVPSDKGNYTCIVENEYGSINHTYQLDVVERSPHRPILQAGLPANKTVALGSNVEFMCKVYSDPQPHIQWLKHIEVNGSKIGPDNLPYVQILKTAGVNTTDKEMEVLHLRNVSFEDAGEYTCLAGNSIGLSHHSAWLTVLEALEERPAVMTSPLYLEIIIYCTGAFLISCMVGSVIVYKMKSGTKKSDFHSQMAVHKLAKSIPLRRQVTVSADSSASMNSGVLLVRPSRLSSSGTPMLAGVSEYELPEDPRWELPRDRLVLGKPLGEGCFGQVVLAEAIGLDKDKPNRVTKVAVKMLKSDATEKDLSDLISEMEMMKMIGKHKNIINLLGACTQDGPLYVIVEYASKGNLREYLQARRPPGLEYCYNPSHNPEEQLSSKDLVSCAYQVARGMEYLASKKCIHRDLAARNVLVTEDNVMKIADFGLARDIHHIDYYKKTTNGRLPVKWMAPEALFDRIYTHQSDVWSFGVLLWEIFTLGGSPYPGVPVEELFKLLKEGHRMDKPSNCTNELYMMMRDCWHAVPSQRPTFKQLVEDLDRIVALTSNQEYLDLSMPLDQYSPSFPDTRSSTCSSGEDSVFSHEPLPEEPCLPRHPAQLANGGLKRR

In turn, `CCN1CCN(c2ccc(C(=O)Nc3n[nH]c4cc(-c5c(C)cccc5C)ccc34)cc2)CC1` [9q, N-(6–(2,6-dimethylphenyl)-1H-indazol-3-yl)-4–(4-ethylpiperazin-1-yl)benzamide] registered a melting point of 235.7 to 239.2 °C. The molecule also came in with an IC50 on FGFR1 of 0.0417 µM. In the data set on SNU-16 cell (Table 2), 0.856 µM corresponded to half-maximal inhibition (IC50).
For the molecule `COc1cc(-c2ccc3nc(NC(=O)c4ccc(N5CCN(C)CC5)cc4)sc3c2)cc(OC)c1OC` [12c, 4–(4-methylpiperazin-1-yl)-N-(6–(3,4,5-trimethoxyphenyl)benzo[d]thiazol-2-yl)benzamide], the melting point was 236.4 to 238.3 °C. On FGFR1, this molecule had an IC50 greater than 1 µM. The IC50 in the data set on SNU-16 cell (Table 1) was greater than 5 µM.
As for `CCN1CCN(c2ccc(C(=O)Nc3n[nH]c4cc(-c5ccc(C#N)cc5)ccc34)cc2)CC1` [9s, N-(6–(4-cyanophenyl)-1H-indazol-3-yl)-4–(4-ethylpiperazin-1-yl)benzamide], the melting point was 226.4 to 230 °C. For the same molecule, the IC50 at FGFR1 is greater than 1 µM. In the data set on SNU-16 cell (Table 2), this molecule returned an IC50 greater than 5 µM.
In turn, `COc1cccc(-c2ccc3c(NC(=O)c4ccc(N5C[C@@H](C)N[C@@H](C)C5)cc4)n[nH]c3c2)c1` [9b, 4-((3R,5S)-3,5-dimethylpiperazin-1-yl)-N-(6–(3-methoxyphenyl)-1H-indazol-3-yl)benzamide] displayed a melting point of 224.8 to 227.4 °C. The molecule also returned an IC50 against FGFR1 of 0.0207 µM. The molecule further displayed an IC50 with SNU-16 cell (Table 1) of 1.05 µM.
In turn, `COc1cccc(-c2ccc3nc(NC(=O)c4ccc(N5CCN(C)CC5)cc4)sc3c2)c1` [12a, N-(6–(3-methoxyphenyl)benzo[d]thiazol-2-yl)-4–(4-methylpiperazin-1-yl) benzamide] gave a melting point of 230.5 to 233.2 °C. The IC50 at FGFR1 was greater than 1 µM. Moreover, the IC50 in the data set with SNU-16 cell (Table 1) is greater than 5 µM.
`CCN1CCN(c2ccc(C(=O)Nc3n[nH]c4cc(-c5cccc(Cl)c5Cl)ccc34)cc2)CC1` [9m, N-(6–(2,3-dichlorophenyl)-1H-indazol-3-yl)-4–(4-ethylpiperazin-1-yl)benzamide] came in with a melting point of 220.1 to 222.4 °C. This molecule also came in with an IC50 on FGFR1 of 0.0448 µM. The same molecule showed an IC50 in the data set on SNU-16 cell (Table 2) of 1.18 µM.
`COc1cc(CCc2nc(NC(=O)c3ccc(N4CCN(C)CC4)cc3)n[nH]2)cc(OC)c1` [18c, N-(5–(3,5-dimethoxyphenethyl)-1H-1,2,4-triazol-3-yl)-4–(4-methylpiperazin-1-yl)benzamide] displayed a melting point of 220.9 to 223.3 °C. On FGFR1, this molecule showed an IC50 greater than 1 µM. The molecule also gave an IC50 in the data set on SNU-16 cell (Table 1) greater than 5 µM.
`COc1cc(OC)cc(-c2ccc3nc(NC(=O)c4ccc(N5CCN(C)CC5)cc4)sc3c2)c1` [12b, N-(6–(3,5-dimethoxyphenyl)benzo[d]thiazol-2-yl)-4–(4-methylpiperazin-1-yl) benzamide] yielded a melting point of 234.6 to 238.2 °C. On FGFR1, this molecule showed a 50% inhibitory concentration (IC50) greater than 1 µM. In the data set with SNU-16 cell (Table 1), the IC50 was greater than 5 µM.
The molecule `CCN1CCN(c2ccc(C(=O)Nc3n[nH]c4cc(-c5cccc(OC(C)C)c5)ccc34)cc2)CC1` [9f, 4–(4-ethylpiperazin-1-yl)-N-(6–(3-isopropoxyphenyl)-1H-indazol-3-yl)benzamide] came in with a melting point of 227.9 to 231.7 °C. The same molecule came in with an IC50 on FGFR1 of 0.0098 µM. This molecule had an IC50 in the data set with SNU-16 cell (Table 2) of 1.5 µM.
As for `CCN1CCN(c2ccc(C(=O)Nc3n[nH]c4cc(-c5ccc(Cl)c(Cl)c5)ccc34)cc2)CC1` [9n, N-(6–(3,4-dichlorophenyl)-1H-indazol-3-yl)-4–(4-ethylpiperazin-1-yl)benzamide], the melting point lay within 224.9 to 228 °C. On FGFR1, this molecule showed an IC50 greater than 1 µM. The molecule also yielded an IC50 in the data set with SNU-16 cell (Table 2) greater than 5 µM.
Molecule `COc1cc(F)cc(-c2ccc3c(NC(=O)c4cnc(N5CCN(C)CC5)cn4)n[nH]c3c2)c1` [9z, N-(6–(3-fluoro-5-methoxyphenyl)-1H-indazol-3-yl)-5–(4-methylpiperazin-1-yl)pyrazine-2-carboxamide] came in with a melting point of 237.7 to 240.3 °C. The IC50 against FGFR1 is 0.0046 µM. This molecule also gave an IC50 with SNU-16 cell (Table 3) of 0.739 µM.
